Measured values published in patent US7638517B2, “3-Amino-1-arylpropyl azaindoles and uses thereof” (Roche Palo Alto LLC, priority 2005, dated 2009).

Legend:
[1] = target: T1, human serotonin transporter (hSERT) (Homo sapiens, UniProt P31645); assay: Screening for human serotonin transporter (hSERT) antagonists using a scintillation proximity assay, competition with [3H]-Citalopram; assay type: binding; conditions: hSERT SPA, membranes of HEK-293 cells expressing recombinant hSERT
T1 construct: expressed in transfected cells; host or cells: HEK-293
Procedure: The screening assay of this example was used to determine the affinity of ligands at the hSERT transporter by competition with [^3H]-Citalopram.
Scintillation Proximity Assay (SPA) works by bringing radioligand within close proximity to the bead's scintillant to stimulate light emission. In this assay, the receptor-containing membranes were pre-coupled to the SPA beads and the binding of the appropriate radioligand to the transporter was measured. The light emission was proportional to the amount of bound radioligand. Unbound radioligand produced no signal as a result of distant proximity to scintillant (lack of energy transfer). […]
(§1) Cell membranes were prepared using a membrane preparation buffer of 50 mM TRIS (pH 7.4). […] After a second centrifugation, the pellet was re-homogenized and brought to a final volume determined during the assay. […]
The % inhibition was calculated for each compound tested [(Compound counts per minute (CPM) at maximum concentration-Non-Specific CPM)/Total CPM*100]. […]
[formula] where max=total binding, min=non specific binding, x=concentration (M) of the tested compound and n=Hill slope. The inhibition dissociation constant (Ki) of each compound was determined according to the method of Cheng-Prusoff and then converted into negative logarithm (pKi) of the Ki.

[2] = target: T2, human norepinephrine transporter (hNET) (Homo sapiens, UniProt P23975); assay: Screening for compounds active at human norepinephrine transporter (hNET) using a scintillation proximity assay, competition with [3H]-Nisoxetine; assay type: binding; conditions: hNET SPA, membranes of HEK-293 cells expressing recombinant hNET
T2 construct: expressed in transfected cells; host or cells: HEK-293 (Clone: HEK-hNET #2)
Procedure: This assay was used to determine the affinity of ligands for the hNET transporter by competition with [^3H]-Nisoxetine. As in the hSERT assay of the above example, receptor-containing membranes were pre-coupled to the SPA beads and the binding of the appropriate radioligand to the transporter was measured. The light emission was proportional to the amount of bound radioligand, with unbound radioligand producing no signal.
HEK-293 cells (Tatsumi et al., Eur. J. Pharmacol. 1997, 30, 249-258) stably expressing recombinant hNET (Clone: HEK-hNET #2) were maintained with media (DMEM hi glucose with 10% FBS, 300 μg/ml G418 and 2 mM L-Glutamine) and incubated at 37° C. with 5% CO2. Cells were released from culture flasks using PBS for 1-2 minutes. […]
as §1
^3[H] […] The mixtures were allowed to stand at room temperature for one hour, and were then counted on a Packard TopCount LCS, a generic SPA counting protocol settings (Energy Range: Low, Efficiency Mode: Normal, Region A: 1.50-35.00, Region B: 1.50-256.00, Count Time (min.): 0.40, Background Subtract: none, Half-Life Correction: no, Quench Indicator: tSIS, Platemap blank subtraction: No, Cross talk reduction: Off). […]

T2 sequence (P23975 whole entry): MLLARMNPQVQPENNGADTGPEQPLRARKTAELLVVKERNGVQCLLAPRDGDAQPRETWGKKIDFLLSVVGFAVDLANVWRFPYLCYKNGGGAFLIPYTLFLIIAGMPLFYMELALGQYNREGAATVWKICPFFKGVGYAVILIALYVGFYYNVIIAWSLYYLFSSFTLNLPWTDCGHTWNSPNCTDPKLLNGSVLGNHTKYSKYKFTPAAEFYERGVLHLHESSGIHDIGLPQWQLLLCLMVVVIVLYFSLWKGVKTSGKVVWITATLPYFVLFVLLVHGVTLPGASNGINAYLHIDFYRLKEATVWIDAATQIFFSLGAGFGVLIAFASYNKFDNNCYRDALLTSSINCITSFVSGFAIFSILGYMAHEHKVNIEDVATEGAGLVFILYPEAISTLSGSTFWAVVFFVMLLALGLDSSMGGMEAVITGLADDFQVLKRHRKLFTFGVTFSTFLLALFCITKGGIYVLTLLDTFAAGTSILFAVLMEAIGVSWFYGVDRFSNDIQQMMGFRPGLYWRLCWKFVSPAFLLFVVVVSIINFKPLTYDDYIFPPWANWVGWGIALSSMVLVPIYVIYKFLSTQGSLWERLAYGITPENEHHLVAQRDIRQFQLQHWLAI
T1 sequence (P31645 whole entry): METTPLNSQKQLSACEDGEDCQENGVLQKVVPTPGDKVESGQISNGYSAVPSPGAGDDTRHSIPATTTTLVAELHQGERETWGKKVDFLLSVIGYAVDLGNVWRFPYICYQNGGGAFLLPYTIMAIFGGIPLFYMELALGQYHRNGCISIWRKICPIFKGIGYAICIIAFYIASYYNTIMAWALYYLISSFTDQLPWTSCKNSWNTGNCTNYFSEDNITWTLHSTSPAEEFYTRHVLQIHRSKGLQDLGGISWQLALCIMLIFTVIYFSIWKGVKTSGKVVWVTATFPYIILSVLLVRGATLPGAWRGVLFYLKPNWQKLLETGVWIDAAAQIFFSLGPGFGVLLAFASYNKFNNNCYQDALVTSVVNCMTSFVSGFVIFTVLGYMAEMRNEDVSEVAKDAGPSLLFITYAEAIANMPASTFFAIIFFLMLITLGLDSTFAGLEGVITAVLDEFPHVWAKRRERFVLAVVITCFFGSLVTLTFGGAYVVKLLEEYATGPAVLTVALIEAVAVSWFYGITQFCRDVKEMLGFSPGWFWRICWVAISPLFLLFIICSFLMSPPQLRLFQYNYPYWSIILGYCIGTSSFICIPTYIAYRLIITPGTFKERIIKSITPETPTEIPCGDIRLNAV

CNCC[C@@H](c1ccccc1)c1c[nH]c2nccc(OC)c12 [compound 23, [(S)-3-(4-Methoxy-1H-pyrrolo[2,3-b]pyridin-3-yl)-3-phenyl-propyl]-methyl-amine]
IC50 [1]: ~1.78 nM
IC50 [2]: ~17.8 nM
